Columns and labels:
[1] = Drug metabolism in human liver microsomes assessed as R-(+)- N-((1-hydroxy-1,2,3,5,6,7-hexahydro-s-indacen-4-yl)carbamoyl)-4-(2-hydroxypropan-2-yl)furan-2-sulfonamide formation at 5 uM preincubated for 20 mins followed by NADPH addition measured after 120 mins by QTOF-ESI-MS/MS analysis; assay type: ADME; details: 2 h
[2] = Drug metabolism in human liver microsomes assessed as N-((1-hydroxy-1,2,3,5,6,7-hexahydro-s-indacen-4-yl)carbamoyl)-4-(2-hydroxypropan-2-yl)furan-2-sulfonamide formation at 5 uM preincubated for 20 mins followed by NADPH addition measured after 120 mins by HPLC/ESI-SRM-MS/MS analysis; assay type: ADME; details: 2 h
[3] = Drug metabolism in human liver microsomes assessed as R-(+)- N-((1-hydroxy-1,2,3,5,6,7-hexahydro-s-indacen-4-yl)carbamoyl)-4-(2-hydroxypropan-2-yl)furan-2-sulfonamide formation at 5 uM preincubated for 20 mins followed by NADPH addition measured after 120 mins by HPLC/ESI-SRM-MS/MS analysis; assay type: ADME; details: 2 h
[4] = Cytotoxicity against human HEK293 cells assessed as decrease in cell viability after 20 hrs by resazurin based fluorescence assay; assay type: toxicity
[5] = Cytotoxicity against human HepG2 cells assessed as decrease in cell viability after 20 hrs by resazurin based fluorescence assay; assay type: toxicity
[6] = target: NACHT, LRR and PYD domains-containing protein 3 (Homo sapiens, UniProt Q96P20); experiment: Inhibition of NLRP3 inflammasome in LPS-stimulated human monocyte derived macrophages assessed as reduction in NLRP3 inflammasome-induced IL-1beta production preincubated for 30 mins followed by NLRP3 stimulation with ATP for 1 hr by ELISA
[7] = Drug level in human liver microsomes treated with 5 uM MCC950 preincubated for 20 mins followed by NADPH addition measured after 120 mins by QTOF-ESI-MS/MS analysis; assay type: ADME; details: 2 h
[8] = Drug level in human liver microsomes treated with 5 uM MCC950 preincubated for 20 mins followed by NADPH addition measured after 120 mins by HPLC/ESI-SRM-MS/MS analysis; assay type: ADME; details: 2 h

Chain of NACHT, LRR and PYD domains-containing protein 3 (Q96P20 whole entry, the tested form may be a part): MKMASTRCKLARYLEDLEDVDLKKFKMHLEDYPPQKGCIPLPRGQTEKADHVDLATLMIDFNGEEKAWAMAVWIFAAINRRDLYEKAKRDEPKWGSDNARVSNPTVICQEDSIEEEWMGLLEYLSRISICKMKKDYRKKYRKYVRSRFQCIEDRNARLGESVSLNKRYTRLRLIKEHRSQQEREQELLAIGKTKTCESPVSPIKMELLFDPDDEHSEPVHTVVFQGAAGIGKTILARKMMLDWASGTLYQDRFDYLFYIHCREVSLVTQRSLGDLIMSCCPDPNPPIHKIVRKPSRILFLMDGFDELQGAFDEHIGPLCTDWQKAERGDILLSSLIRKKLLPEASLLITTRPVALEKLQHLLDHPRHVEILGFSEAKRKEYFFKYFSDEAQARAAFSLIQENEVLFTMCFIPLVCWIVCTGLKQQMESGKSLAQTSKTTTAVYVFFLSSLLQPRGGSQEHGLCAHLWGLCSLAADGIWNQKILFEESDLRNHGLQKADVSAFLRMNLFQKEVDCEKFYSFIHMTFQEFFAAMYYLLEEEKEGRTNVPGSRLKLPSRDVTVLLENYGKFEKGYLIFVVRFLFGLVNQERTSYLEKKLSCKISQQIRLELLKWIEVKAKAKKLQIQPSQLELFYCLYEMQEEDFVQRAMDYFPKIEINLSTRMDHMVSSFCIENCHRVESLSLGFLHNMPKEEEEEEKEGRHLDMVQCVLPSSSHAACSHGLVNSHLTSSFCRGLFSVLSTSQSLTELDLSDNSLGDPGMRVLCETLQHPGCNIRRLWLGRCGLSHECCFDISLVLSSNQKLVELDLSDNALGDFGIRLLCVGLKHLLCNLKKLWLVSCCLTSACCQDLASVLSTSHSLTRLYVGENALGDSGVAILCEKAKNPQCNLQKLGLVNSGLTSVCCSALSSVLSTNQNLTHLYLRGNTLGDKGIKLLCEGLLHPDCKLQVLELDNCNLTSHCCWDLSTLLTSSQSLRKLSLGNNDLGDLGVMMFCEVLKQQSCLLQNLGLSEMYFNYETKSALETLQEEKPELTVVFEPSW

Row | SMILES | Drug metabolism [2] | Drug metabolism [3] | IC50 [6] [µM] | Drug metabolism [8] | Drug metabolism [1] | CC50 at 20 h [4] [µM] | CC50 at 20 h [5] [µM] | Drug metabolism [7]
1 | CC(C)(O)c1coc(S(=O)(=O)NC(=O)Nc2c3c(cc4c2CCC4)CCC3)c1 | Metabolite_Detected | Metabolite_Detected | – | – | Metabolite_Detected | > 62.5 | > 62.5 | –
2 | CC(C)(O)c1coc(S(=O)(=O)NC(=O)Nc2c3c(cc4c2CC[C@@H]4O)CCC3)c1 | – | – | 6.35 | – | – | – | – | –
3 | CC(C)(O)c1coc(S(=O)(=O)NC(=O)Nc2c3c(cc4c2CC(O)C4)CCC3)c1 (centres undefined) | – | – | 1.83 | – | – | > 62.5 | > 62.5 | –
4 | CC(C)(O)c1coc(S(=O)(=O)NC(=O)Nc2c3c(cc4c2C(O)CC4)CCC3)c1 (racemic) | – | – | 0.232 | – | – | > 62.5 | > 62.5 | –

Now from value to compound, other results behind:

Row | Drug metabolism [2] | Drug metabolism [3] | IC50 [6] [µM] | Drug metabolism [8] | SMILES | Drug metabolism [1] | CC50 at 20 h [4] [µM] | CC50 at 20 h [5] [µM] | Drug metabolism [7]
5 | – | – | 1.24 | Metabolite_Detected | CC(C)(O)c1coc(S(=O)(=O)NC(=O)Nc2c3c(cc4c2CC[C@H]4O)CCC3)c1 | – | – | – | Metabolite_Detected
6 | – | – | 1.97 | Metabolite_Detected | CC(C)(O)c1coc(S(=O)(=O)NC(=O)Nc2c3c(cc4c2CCC4O)CCC3)c1 (racemic) | – | > 62.5 | > 62.5 | –
